Source: PubChem BioAssay (NCI)
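Cultured in 96-well plates, cells were exposed to test compound for 48 hours across five concentrations. Here, GI50 denotes the concentration required for 50% inhibition of growth. Definition used: TGI = concentration required for complete inhibition of growth.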

Columns and labels:
Test in all cases: DTP human tumour cell line panel, 48 h
PC-3 prostate = tested on: PC-3 prostate
HOP-62 NSCLC = tested on: HOP-62 NSCLC
RXF 393 renal = tested on: RXF 393 renal
HCC-2998 colon = tested on: HCC-2998 colon
EKVX NSCLC = tested on: EKVX NSCLC
K-562 leukemia = tested on: K-562 leukemia
KM12 colon = tested on: KM12 colon
MALME-3M melanoma = tested on: MALME-3M melanoma
NCI/ADR-RES ovarian = tested on: NCI/ADR-RES ovarian
IGROV1 ovarian = tested on: IGROV1 ovarian
NCI-H522 lung = tested on: NCI-H522 lung
SW-620 colon = tested on: SW-620 colon
HCT-116 colon = tested on: HCT-116 colon
HCT-15 colon = tested on: HCT-15 colon
UO-31 renal = tested on: UO-31 renal
NCI-H23 lung = tested on: NCI-H23 lung
U251 CNS = tested on: U251 CNS
RPMI-8226 leukemia = tested on: RPMI-8226 leukemia
OVCAR-8 ovarian = tested on: OVCAR-8 ovarian
NCI-H460 lung = tested on: NCI-H460 lung
LOX IMVI melanoma = tested on: LOX IMVI melanoma
M14 melanoma = tested on: M14 melanoma
HL-60(TB) leukemia = tested on: HL-60(TB) leukemia
SK-OV-3 ovarian = tested on: SK-OV-3 ovarian
CCRF-CEM leukemia = tested on: CCRF-CEM leukemia
SK-MEL-28 melanoma = tested on: SK-MEL-28 melanoma
SN12C renal = tested on: SN12C renal
CAKI-1 renal = tested on: CAKI-1 renal
MDA-MB-435 = tested on: MDA-MB-435
OVCAR-4 ovarian = tested on: OVCAR-4 ovarian
DU-145 prostate = tested on: DU-145 prostate
A498 renal = tested on: A498 renal
SNB-19 CNS = tested on: SNB-19 CNS
HS 578T breast = tested on: HS 578T breast
TK-10 renal = tested on: TK-10 renal
T-47D breast = tested on: T-47D breast
OVCAR-5 ovarian = tested on: OVCAR-5 ovarian
HOP-92 NSCLC = tested on: HOP-92 NSCLC
HT29 colon = tested on: HT29 colon
SR leukemia = tested on: SR leukemia
SK-MEL-2 melanoma = tested on: SK-MEL-2 melanoma
SK-MEL-5 melanoma = tested on: SK-MEL-5 melanoma
SNB-75 CNS = tested on: SNB-75 CNS
MDA-MB-231 breast = tested on: MDA-MB-231 breast
UACC-257 melanoma = tested on: UACC-257 melanoma
OVCAR-3 ovarian = tested on: OVCAR-3 ovarian
A549 NSCLC = tested on: A549 NSCLC
MCF7 breast = tested on: MCF7 breast
SF-539 CNS = tested on: SF-539 CNS
UACC-62 melanoma = tested on: UACC-62 melanoma
NCI-H226 lung = tested on: NCI-H226 lung
MOLT-4 leukemia = tested on: MOLT-4 leukemia
COLO 205 colon = tested on: COLO 205 colon
ACHN renal = tested on: ACHN renal
BT-549 breast = tested on: BT-549 breast
SF-268 CNS = tested on: SF-268 CNS
786-0 renal = tested on: 786-0 renal
SF-295 CNS = tested on: SF-295 CNS

## COc1ccc2c(c1)C(=O)c1c-2c(OCCN(C)C)nc2ccccc12
PC-3 prostate
  GI50: 4.99 µM
  TGI: 21.4 µM
HOP-62 NSCLC
  GI50: 2.29 µM
  TGI: 12.7 µM
RXF 393 renal
  GI50: 3.79 µM
  TGI: 15.7 µM
HCC-2998 colon
  GI50: 3.89 µM
  TGI: 14.5 µM
EKVX NSCLC
  GI50: 2.05 µM
  TGI: 7.8 µM
K-562 leukemia
  GI50: 1.6 µM
  TGI: 10.3 µM
KM12 colon
  GI50: 1.19 µM
  TGI: 3.28 µM
MALME-3M melanoma
  GI50: 2.46 µM
  TGI: 8.65 µM
NCI/ADR-RES ovarian
  GI50: 3.05 µM
  TGI: 14.5 µM
IGROV1 ovarian
  GI50: 2.97 µM
  TGI: 14.8 µM
NCI-H522 lung
  GI50: 1.87 µM
  TGI: 4.75 µM
SW-620 colon
  GI50: 0.823 µM
  TGI: 3.26 µM
HCT-116 colon
  GI50: 0.768 µM
  TGI: 10.8 µM
HCT-15 colon
  GI50: 2.02 µM
  TGI: 11.3 µM
UO-31 renal
  GI50: 0.962 µM
  TGI: 2.76 µM
NCI-H23 lung
  GI50: 3.8 µM
  TGI: 16.7 µM
U251 CNS
  GI50: 2.28 µM
  TGI: 9.87 µM
RPMI-8226 leukemia
  GI50: 2.85 µM
  TGI: 13.9 µM
OVCAR-8 ovarian
  GI50: 2.54 µM
  TGI: 11.9 µM
NCI-H460 lung
  GI50: 1.15 µM
  TGI: 4.33 µM
LOX IMVI melanoma
  GI50: 1.54 µM
  TGI: 4.91 µM
M14 melanoma
  GI50: 3.85 µM
  TGI: 15 µM
HL-60(TB) leukemia
  GI50: 3.19 µM
  TGI: 15.4 µM
SK-OV-3 ovarian
  GI50: 4.87 µM
  TGI: 35.3 µM
CCRF-CEM leukemia
  GI50: 0.825 µM
  TGI: 10.4 µM
SK-MEL-28 melanoma
  GI50: 4.53 µM
  TGI: 15.4 µM
SN12C renal
  GI50: 1.69 µM
  TGI: 10.6 µM
CAKI-1 renal
  GI50: 1.47 µM
  TGI: 4.14 µM
MDA-MB-435
  GI50: 2.58 µM
  TGI: 10.1 µM
OVCAR-4 ovarian
  GI50: 3.03 µM
  TGI: 10.8 µM
DU-145 prostate
  GI50: 2.91 µM
  TGI: 9 µM
A498 renal
  GI50: 1.87 µM
  TGI: 10.7 µM
SNB-19 CNS
  GI50: 2.68 µM
  TGI: 12.4 µM
HS 578T breast
  GI50: 3.57 µM
  TGI: 12.2 µM
TK-10 renal
  GI50: 7.56 µM
  TGI: 20.8 µM
T-47D breast
  GI50: 4.05 µM
  TGI: 18.3 µM
OVCAR-5 ovarian
  GI50: 4.53 µM
  TGI: 18.5 µM
HOP-92 NSCLC
  GI50: 8.05 µM
  TGI: 81.8 µM
HT29 colon
  GI50: 1.46 µM
  TGI: 5.01 µM
SR leukemia
  GI50: 0.998 µM
  TGI: 6.76 µM
SK-MEL-2 melanoma
  GI50: 12.2 µM
  TGI: 25.7 µM
SK-MEL-5 melanoma
  GI50: 4.6 µM
  TGI: 16.6 µM
SNB-75 CNS
  GI50: 7.62 µM
  TGI: 21.6 µM
MDA-MB-231 breast
  GI50: 4.02 µM
  TGI: 20.8 µM
UACC-257 melanoma
  GI50: 3.06 µM
  TGI: 10.9 µM
OVCAR-3 ovarian
  GI50: 2.48 µM
  TGI: 7.01 µM
A549 NSCLC
  GI50: 1.33 µM
  TGI: 4.54 µM
MCF7 breast
  GI50: 1.76 µM
  TGI: 10.9 µM
SF-539 CNS
  GI50: 4.75 µM
  TGI: 17.9 µM
UACC-62 melanoma
  GI50: 3.9 µM
  TGI: 15.7 µM
NCI-H226 lung
  GI50: 2.15 µM
  TGI: 10.4 µM
MOLT-4 leukemia
  GI50: 0.524 µM
  TGI: 5.64 µM
COLO 205 colon
  GI50: 1.83 µM
  TGI: 10.1 µM
ACHN renal
  GI50: 1.62 µM
  TGI: 5.47 µM
BT-549 breast
  GI50: 12 µM
  TGI: 26 µM
SF-268 CNS
  GI50: 2.34 µM
  TGI: 10.7 µM
786-0 renal
  GI50: 4.06 µM
  TGI: 16.5 µM

## Nc1ncnc2c1ncn2[C@@H]1O[C@H](COC(c2ccccc2)(c2ccccc2)c2ccccc2)[C@@H](OC(=S)Oc2ccccc2)[C@@H]1F
PC-3 prostate
  TGI: 15.2 µM
HOP-62 NSCLC
  TGI: 46 µM
RXF 393 renal
  TGI: 12.3 µM
HCC-2998 colon
  TGI: 28.5 µM
EKVX NSCLC
  TGI: 26.6 µM
K-562 leukemia
  TGI: > 100 µM
KM12 colon
  TGI: 29.1 µM
NCI/ADR-RES ovarian
  TGI: 18.5 µM
IGROV1 ovarian
  TGI: 10.8 µM
NCI-H522 lung
  TGI: 5.32 µM
SW-620 colon
  TGI: 29.7 µM
HCT-116 colon
  TGI: 13.8 µM
HCT-15 colon
  TGI: 12.5 µM
UO-31 renal
  TGI: 13.2 µM
NCI-H23 lung
  TGI: 16 µM
U251 CNS
  TGI: 21.8 µM
RPMI-8226 leukemia
  TGI: > 100 µM
OVCAR-8 ovarian
  TGI: 11.9 µM
NCI-H460 lung
  TGI: 46.3 µM
LOX IMVI melanoma
  TGI: 14.1 µM
M14 melanoma
  TGI: 21 µM
HL-60(TB) leukemia
  TGI: 13.3 µM
SK-OV-3 ovarian
  TGI: 30.8 µM
CCRF-CEM leukemia
  TGI: 8.55 µM
SK-MEL-28 melanoma
  TGI: 33.5 µM
SN12C renal
  TGI: 15.1 µM
CAKI-1 renal
  TGI: 41.6 µM
MDA-MB-435
  TGI: 19.1 µM
SF-295 CNS
  TGI: 31.1 µM
OVCAR-4 ovarian
  TGI: 57.9 µM
DU-145 prostate
  TGI: 30.2 µM
A498 renal
  TGI: 35.2 µM
SNB-19 CNS
  TGI: 27.7 µM
HS 578T breast
  TGI: 25.1 µM
TK-10 renal
  TGI: 32.3 µM
T-47D breast
  TGI: 52.3 µM
OVCAR-5 ovarian
  TGI: 37 µM
HOP-92 NSCLC
  TGI: 28.6 µM
HT29 colon
  TGI: 22.7 µM
SR leukemia
  TGI: 8.24 µM
SK-MEL-2 melanoma
  TGI: 19.4 µM
SK-MEL-5 melanoma
  TGI: 16.8 µM
SNB-75 CNS
  TGI: 32.6 µM
MDA-MB-231 breast
  TGI: 23.7 µM
UACC-257 melanoma
  TGI: 28.6 µM
OVCAR-3 ovarian
  TGI: 18.4 µM
A549 NSCLC
  TGI: 43.7 µM
MCF7 breast
  TGI: 14.9 µM
SF-539 CNS
  TGI: 20.9 µM
UACC-62 melanoma
  TGI: 29.7 µM
NCI-H226 lung
  TGI: 31.8 µM
MOLT-4 leukemia
  TGI: 5.98 µM
COLO 205 colon
  TGI: 24.8 µM
ACHN renal
  TGI: 22.6 µM
BT-549 breast
  TGI: 19.9 µM
SF-268 CNS
  TGI: 12.4 µM
786-0 renal
  TGI: 15.9 µM
